The values below come from US7749698B2, “p53 wild-type as biomarker for the treatment with mTOR inhibitors in combination with a cytotoxic agent” (Novartis AG, priority 2004, dated 2010).

Test [1] relates to p53 (TP53) wild-type A549 cells. Kind of test: p21 siRNA transfection, cisplatin treatment, p21/PARP immunoblot. The test is classed as cell-based, human. Particulars: A549 untransfected or LacZ siRNA control transfected; cisplatin 1 to 2 μg/ml, 24 hours. On the procedure:
p53 (TP53) wild-type A549 cells are seeded at a density of 0.1×10^6 cells/5 ml per 6 cm plates and incubated for 24 hours at 37° C. and 5% CO2. Cells are left untransfected or transiently transfected with 100 nM siRNA targeting either p21 (Accession number: NM000389; target sequence: 5′-GTG GAC AGC GAG CAG CTG A-3′) or LacZ (as above) control siRNA, using Oligofectamine (Invitrogen, Cat # 12252-011). After 30 hours incubation, cells are incubated with suboptimal concentrations of cisplatin (e.g. 1 to 2 μg/ml) for an additional 24 hours. Cell extracts corresponding to 30 μg (p21) and 50 μg (PARP) total protein are resolved on 15 and 10% SDS-PAGE electrophoresis, respectively, and immunoblot analysis is performed using mouse monoclonal and rabbit polyclonal antibodies raised against p21 and PARP, respectively.

Test [2] has the same test system. Description: p21 and Bax immunoblot, cisplatin with or without mTOR inhibitor. The format is cell-based, human. Particulars: for Bax protein expression: either agent alone or in combination. The protocol:
(§1) p53 (TP53) wild-type A549 and MCF7 cells are seeded at a density of 0.3×10^6 and 0.4×10^6 cells/4 ml per 6 cm plates, respectively, and incubated for 24 hours at 37° C. and 5% CO2. Cells are incubated with suboptimal concentrations of cisplatin (e.g. 0.5 to 4 μg/ml) either in combination with 20 nM 40-O-(2-hydroxyethyl) rapamycin or with the vehicle-control DMSO for an additional 24 hours and 30 hours, respectively. Cell extracts corresponding to 30 μg total protein are resolved on 15% SDS-PAGE electrophoresis and immunoblot analysis is performed using mouse monoclonal antibodies raised against p21 (Oncogene Research Products, Clone EA10, catalogue #OP64). […] Strikingly, the presence of the mTOR inhibitor, e.g. 40-O-(2-hydroxyethyl) rapamycin, attenuates cisplatin-induced upregulation of p21 protein expression. In contrast, Bax protein expression, a p53-regulated pro-apoptotic protein, is unaffected by either agent alone or in combination. In this assay cytotoxic-induced p21 protein expression is inhibited by the presence of the mTOR inhibitor. This provides an explanation for the enhanced cell killing/apoptotic response observed with cisplatin and mTOR inhibitor combinations.

Test [3] relates to p53 (TP53) wild-type MCF7 cells. The description is as above. The test is classed as cell-based, human. As to conditions: for Bax protein expression: either agent alone or in combination. On the procedure: as §1
The test system of test [4] is p53 (TP53) wild-type A549 cells. Kind of test: p53 siRNA transfection, cisplatin treatment, p53/p21/PARP immunoblot. The format is cell-based, human. As to conditions: A549 untransfected or LacZ siRNA control transfected. On the procedure: p53 (TP53) wild-type A549 cells are seeded at a density of 0.1×10^6 cells/5 ml per 6 cm plates and incubated for 24 hours at 37° C. and 5% CO2. Cells are left untransfected or transiently transfected with 100 nM siRNA targeting either human p53 (Accession number: NM000546; target sequence: 5′-GCA TCT TAT CCG AGT GGA A-3′) or LacZ (Accession number: M55068; target sequence: 5′-GCGGCTGCCGGAATTTACCTT-3′) control siRNA, using Oligofectamine (Invitrogen, Cat # 12252-011). After 30 hours incubation, cells are incubated with increasing concentrations of cisplatin (e.g. 0.5 to 6 μg/ml) for an additional 24 hours. Cell extracts corresponding to 30 μg (p21) and 50 μg (p53 and PARP) total protein are resolved on 15% (p21) and 10% (p53 and PARP) SDS-PAGE electrophoresis, and immunoblot analysis is performed using mouse monoclonal and rabbit polyclonal antibodies raised against p21 and p53/PARP, respectively. […] The same effects on p53 expression, p21 expression and PARP cleavage are also observed with two other siRNA's targeting human p53 (target sequences: 5′-GGA AGA CTC CAG TGG TAA T-3′ and 5′-GAT ATT GAA CAA TGG TTC A-3′).
Background: Immunoblotting shows a protein as a band on a membrane.

The subject of test [5] is A549 cells. Description: PARP cleavage immunoblot, cisplatin combination. The test is classed as cell-based, human. Particulars: 20 nM with cisplatin 0.5 to 4 μg/ml, 24 hours, compared to cisplatin or the mTOR inhibitor alone. The protocol:
A549 cells are seeded at a density of 0.1×10^6 cells/10 ml per 10 cm plates and incubated for 24 hours at 37° C. and 5% CO2. Cells are incubated with suboptimal concentrations of cisplatin (e.g. 0.5 to 4 μg/ml) either in combination with 20 nM 40-O-(2-hydroxyethyl) rapamycin or with the vehicle-control DMSO for an additional 24 hours. Cell extracts corresponding to 50 μg total protein are resolved on 8% SDS-PAGE electrophoresis and immunoblot analysis is performed using rabbit polyclonal antibodies raised against Poly (ADP-Ribose) Polymerase (PARP) and p53. […] This confirms the above results that, in the p53 (TP53) wild-type A549 cells, the presence of the mTOR inhibitor results in higher levels of cell death at suboptimal cisplatin concentrations.

Test [6] has as its system p53 (TP53) wild-type human lung adenocarcinoma A549 cells. Kind of test: YO-PRO cell death/cytotoxicity assay, cisplatin combination. The test is classed as cell-based. On the procedure: (§2) p53 (TP53) wild-type human lung adenocarcinoma A549 cells are seeded at a density of 5×10^3 cells/100 μl per well in 96-well plates and incubated for 24 hours at 37° C. and 5% CO2. Cells are incubated with suboptimal concentrations of cisplatin (e.g. 3 to 10 μg/ml) either in combination with 20 nM 40-O-(2-hydroxyethyl) rapamycin or with the vehicle-control DMSO for an additional 24 hours. The YO-PRO® assay is performed as above to determine cell death or cytotoxicity and, after cell lysis, the relative cell proliferation. […] In the latter case, incubation with compounds is for 30 hours.

The test system of test [7] is A549 cells. Description: PARP cleavage immunoblot, gemcitabine combination. Particulars: 20 nM with gemcitabine 5 to 12.5 nM, 72 hours, compared to gemcitabine or the mTOR inhibitor alone. The format is cell-based, human. On the procedure: A549 cells are seeded at a density of 0.1×10^6 cells/10 ml per 10 cm plates and incubated for 24 hours at 37° C. and 5% CO2. Cells are incubated with suboptimal concentrations of gemcitabine (e.g. 5 to 12.5 nM) either in combination with 20 nM 40-O-(2-hydroxyethyl) rapamycin or with the vehicle-control DMSO for an additional 72 hours. Cell extracts corresponding to 50 μg total protein are resolved by 8% SDS-PAGE electrophoresis and immunoblot analysis is performed using rabbit polyclonal antibodies raised against Poly (ADP-Ribose) Polymerase (PARP) (Cell Signalling Technology catalogue #9542). […] This confirms the above results that, in the p53 (TP53) wild-type A549 cells, the presence of the mTOR inhibitor results in higher levels of cell death at suboptimal gemcitabine concentrations.

The test system of a further test is DU145. Description: YO-PRO cell death/cytotoxicity assay, cisplatin combination. The format is cell-based. As to conditions: DU145, p53 mutated/deficient; 20 nM with cisplatin, 22 hours. On the procedure: as §2
(§3) This procedure is repeated however with the use of p53 (TP53) mutated/deficient tumor cell lines, e.g. PC3M (seeded at a density of 3×10^3 cells/100 μl) or DU145 (seeded at a density of 5×10^3 cells/100 μl:HTB-81; American Type Culture Collection). The incubation with compounds in this case is 22 hours for DU145 or 30 hours for PC3M.

In a further test the test system is PC3M. Described as above. The test is classed as cell-based, human. Particulars: p53 mutated/deficient, 20 nM with cisplatin, 30 hours. On the procedure: as §2, §3
Test [8] has as its system MDA-MB231 human breast carcinoma cells. Kind of test: YO-PRO cell death/cytotoxicity assay, gemcitabine combination. The test is classed as cell-based. Particulars: MDA-MB231, p53 mutated/deficient; 20 nM with gemcitabine. The protocol:
(§4) p53 (TP53) wild-type human adenocarcinoma A549 (CCL-185) tumor cells (American Type Culture Collection, Rockville, Md., USA) are seeded at a density of 2×10^3 cells/100 μl per well in 96-well plates and incubated for 24 hours at 37° C. and 5% CO2. Cells are incubated with suboptimal concentrations of gemcitabine (e.g. 5 to 17.5 nM) either in combination with 20 nM 40-O-(2-hydroxyethyl) rapamycin or with the vehicle-control DMSO for an additional 72 hours. YO-PRO dye (YO-PRO^R-1 iodide [491/509], cat #Y3603, Molecular Probes) is added to the cells and a Cytofluor II Fluorescence plate reader is used to determine cell death or cytotoxicity and, after cell lysis, the relative cell proliferation.
(§5) This procedure is repeated however with the use of p53 (TP53) mutated/deficient tumor cell lines, e.g. PC3M human prostate carcinoma cells (seeded at a density of 0.8×10^3 cells/100 μl) or MDA-MB231 human breast carcinoma cells (seeded at a density of 2×10^3 cells/100 μl; HTB-26; American Type Culture Collection).

Test [9] deals with PC3M human prostate carcinoma cells. Described as above. The format is cell-based. As to conditions: p53 mutated/deficient, 20 nM with gemcitabine. The protocol:
as §4, §5

In test [10] the test system is p53 (TP53) wild-type human adenocarcinoma A549 (CCL-185) tumor cells. Described as above. The format is cell-based. As to conditions: 20 nM with gemcitabine 5 to 17.5 nM, 72 hours, p<0.05, ANOVA with Tukey test. On the procedure: as §4
Where [11] appears, read: cisplatin 0.5 to 6 μg/ml, 24 hours.

`N.N.[Cl][Pt][Cl]` [cisplatin]: the “PARP cleavage (a marker of apoptosis)” value is listed as “little evidence of PARP cleavage” in test [1] and “evidence of PARP cleavage” in [4] (at higher cisplatin concentrations (2 to 6 μg/ml)). In addition, the p21 protein expression result in test [1] is “induces p21 protein expression in a concentration-dependent manner”; in test [2] (cisplatin alone 0.5 to 4 μg/ml, 24 hours), “induces increased p21 protein expression in a concentration-dependent manner”; in test [3] (cisplatin alone 0.5 to 4 μg/ml, 30 hours), “induces increased p21 protein expression in a concentration-dependent manner”; in test [4] (setting [11]), “induces p53 and p21 protein expression in a concentration-dependent manner”. Besides, the Bax protein expression result in [2] and in [3] was “unaffected” each time. The p53 protein expression result in test [4] (setting [11]) is “induces p53 and p21 protein expression in a concentration-dependent manner”.
Consider `CO[C@H]1C[C@@H]2CC[C@@H](C)[C@@](O)(O2)C(=O)C(=O)N2CCCC[C@H]2C(=O)O[C@H]([C@H](C)C[C@@H]2CC[C@@H](OCCO)[C@H](OC)C2)CC(=O)[C@H](C)/C=C(\C)[C@@H](O)[C@@H](OC)C(=O)[C@H](C)C[C@H](C)/C=C/C=C/C=C/1C` [40-O-(2-hydroxyethyl) rapamycin], for which the “PARP cleavage (a marker of apoptosis) at suboptimal cisplatin concentrations” value in the test with A549 cells [5] is reported as “increased PARP cleavage”. Also, the “potentiation of the cell killing effect of suboptimal concentrations of cisplatin” value in test [6] (20 nM with cisplatin 3 to 10 μg/ml, 24 hours, p<0.05, ANOVA with Tukey test) was “statistically significant potentiation”. Also, the “interaction between RAD001 and cisplatin (two-way ANOVA)” value in [6] (p<0.001) was “highly significant”. Further, the “cisplatin-induced upregulation of p21 protein expression” value in [2] (20 nM with cisplatin 0.5 to 4 μg/ml, 24 hours) is given as “attenuates”; in [3] (20 nM with cisplatin 0.5 to 4 μg/ml, 30 hours), “attenuates”. The Bax protein expression result in [2] and in [3] was “unaffected” throughout. In addition, the “PARP cleavage (a marker of apoptosis) at suboptimal gemcitabine concentrations” value in the test with A549 cells [7] is “increased PARP cleavage”. Also, the “potentiation of cell death” value (in the test with DU145; with PC3M; in [8]; in test [9]) was “No striking or consistent potentiation” in each case. Further, the “potentiation of the cell killing effect of suboptimal concentrations of gemcitabine” value in test [10] is listed as “statistically significant potentiation”.
